{
  "source": "patent US20240325557A1",
  "about": "“TREATMENT OF CANCER” (INNATE PHARMA, priority 2020, published 2024)",
  "key": {"SUM185 cells": {"tested_on": "SUM185 cells", "experiment": "In vitro ADC cytotoxicity, 5 days, CTG", "format": "cell-based, human", "details": "model of anti-HER2 resistance", "quoted_text": "Luminescence vs. Ab concentration was plotted on graph.\nFor each ADC, a concentration range of ADC was incubated with nectin-4-expressing cells. After incubation, CTG substrate was added at 1/1 ratio and the luminescent signal was read with a plate reader (Enspire). It allowed quantifying the ATP present (indicator of metabolically active cells) which was proportional to cell viability.\nThis setting is used as a model of anti-HER2 resistance.\nFor each ADC, a concentration range of ADC was incubated with nectin-4-expressing cells. After incubation, CTG substrate was added at 1:1 ratio and the luminescent signal was read with a plate reader (Enspire), allowing quantification of the ATP present (indicator of metabolically active cells) which was proportional to cell viability."}, "[1]": {"tested_on": "MC-38 cells that endogenously express MDR1 P-glycoprotein engineered to express Nectin-4", "experiment": "In vitro efficacy of ADCs in Pgp-expressing cancer model (CTG, five days)", "format": "cell-based", "details": "presence or absence of cyclosporin A (5 μM); 150 nM ADC, normalized to control antibody", "protocol": "MC-38 cells that endogenously express MDR1 P-glycoprotein (Pgp) were engineered to express Nectin-4 and cultured in DMEM+10% FBS. Cells were either treated with vehicle (DSMO) or with cyclosporin A (5 μM, stock solution in DMSO) known to act as an inhibitor of Pgp, in presence of ADCs.\nThe ADCs and the equivalent isotype control ADCs were used at dose range from 150 to 2.3 10^−3 nM. After five days of co-incubation with cells, cell viability was measured by addition of Cell Titer Glo™ (CTG) substrate. Luminescence vs. Ab concentration was plotted."}, "[2]": {"details": "UC patients; cited from earlier work"}, "[3]": {"details": "failing prior chemotherapy; cited from earlier work"}, "[4]": {"details": "349 patients; cited from earlier work"}, "[5]": {"molecular_target": "T1, Hu-Nectin4 IgC1C2-V5 (modified Nectin-4 lacking the Ig-like V domain, C1C2 construct) (Homo sapiens, UniProt Q96NY8)", "T1 construct": "expressed in transfected cells; host or cells: CHO", "T1 sequence (Q96NY8 148-510)": "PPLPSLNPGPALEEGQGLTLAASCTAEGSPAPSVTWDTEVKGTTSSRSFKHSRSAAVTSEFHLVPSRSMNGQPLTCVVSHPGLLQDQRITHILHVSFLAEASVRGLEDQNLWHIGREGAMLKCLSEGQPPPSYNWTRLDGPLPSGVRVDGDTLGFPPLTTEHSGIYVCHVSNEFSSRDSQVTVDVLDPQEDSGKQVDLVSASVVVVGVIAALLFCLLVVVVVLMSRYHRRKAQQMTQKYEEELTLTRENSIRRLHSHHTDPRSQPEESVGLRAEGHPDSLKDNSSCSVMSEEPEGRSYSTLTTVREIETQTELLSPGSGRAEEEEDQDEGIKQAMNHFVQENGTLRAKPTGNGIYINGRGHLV", "experiment": "Flow cytometry binding to cells expressing the Nectin-4 C1C2 construct", "protocol": "(§1) The characterization of the binding of the antibodies on Nectin-4 domains was performed by flow cytometry using cells made to express the wild-type human Nectin-4 protein and cells made to express a modified Nectin-4 having the Ig-like C2 type 1 and the Ig-like C2 type 2 domains and lacking the Ig-like V domain (the C1C2 construct). The latter protein additionally bears a V5 tag for flow cytometry cell sorting, and cells were used as Nectin4-C1C2-V5 sorted cells.\nWild-type Nectin-4 (the CI.3C8 cell line), a C2 construct (containing the Ig-like C2 type 2 domain and lacking both the V and the C1 domains) and the C1C2 construct allow the determination of whether test antibodies bind to the V or different C domains. Briefly, nucleic acid sequences encoding different human Nectin-4 domains were amplified by PCR. The PCR products were inserted into an expression vector at appropriate restriction sites. A leader peptide, and for C1C2 and C2 an N-terminal V5 tag having the amino acid sequence […] (SEQ ID NO: 41), were added, and expression at the surface of cells was confirmed by flow cytometry. The amino acid sequences of the resulting different human Nectin-4 domain fragment-containing proteins are shown below (V5 tag underlined). The vectors were then transfected into the CHO cell line to obtain stable clones expressing the different Nectin-4 domain proteins at the cell surface."}, "wild-type human Nectin-4": {"molecular_target": "T2, wild-type human Nectin-4 (Homo sapiens, UniProt Q96NY8)", "T2 construct": "expressed in transfected cells; host or cells: CHO (huNectin4 Cl.3C8)", "T2 sequence (Q96NY8 32-510)": "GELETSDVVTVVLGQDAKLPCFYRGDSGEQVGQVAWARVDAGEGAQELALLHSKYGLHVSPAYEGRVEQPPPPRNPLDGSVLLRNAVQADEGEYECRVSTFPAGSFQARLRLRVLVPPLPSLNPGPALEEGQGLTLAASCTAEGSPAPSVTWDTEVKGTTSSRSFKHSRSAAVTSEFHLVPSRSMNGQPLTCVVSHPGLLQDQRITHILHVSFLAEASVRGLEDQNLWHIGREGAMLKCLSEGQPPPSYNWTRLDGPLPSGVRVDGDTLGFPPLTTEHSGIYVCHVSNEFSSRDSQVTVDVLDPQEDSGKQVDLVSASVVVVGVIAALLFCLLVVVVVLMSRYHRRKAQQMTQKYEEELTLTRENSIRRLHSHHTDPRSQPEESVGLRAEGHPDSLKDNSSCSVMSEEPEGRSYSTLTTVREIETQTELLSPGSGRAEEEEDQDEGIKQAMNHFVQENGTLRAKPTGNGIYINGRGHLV", "experiment": "Flow cytometry binding to wild-type Nectin-4 expressing CHO cells", "protocol": "plates of hybridoma supernatants were tested for binding on the wild-type human Nectin-4 expressing CHO cell line by flow cytometry. Briefly, Nectin-4 expressing cells were used at 0.2×10^6 cells by well in a buffer of PBS, BSA 0.5%, EDTA 5 mM. The first antibody was incubated with cells for 1h at +5±3° C. in 50 μL of supernatant. […] Acquisition HTFC flow cytometer (Intellicyt), with data analysis on ForeCyt™ software.\nas §1\nWild-type Nectin-4 (the CI.3C8 cell line), a C2 construct (containing the Ig-like C2 type 2 domain and lacking both the V and the C1 domains) and the C1C2 construct allow the determination of whether test antibodies bind to the V or different C domains. Briefly, nucleic acid sequences encoding different human Nectin-4 domains were amplified by PCR. The PCR products were inserted into an expression vector at appropriate restriction sites. […]"}, "SUM190 cells": {"tested_on": "SUM190 cells", "experiment": "In vivo efficacy of ADCs, SUM190 mouse model of human breast cancer (Example 9)", "details": "single i.v. injection 3 mg/kg; antibodies conjugated to ggfg-Dxd, DAR=8", "protocol": "When tumors reached a volume between 195 and 250 mm3, mice were randomized into groups of 9 mice for intravenous treatment with a single injection of 3 mg/kg of camptothecin ADCs. Tumor growth were followed twice a week. Kaplan Meier survival curves were established by using GraphPad Prism V7 software according to the following criteria: When the tumor volume reached 1500 mm3, mice were euthanized and considered dead on the day of sacrifice (D)."}, "rat Nectin-4": {"tested_on": "rat Nectin-4", "sequence (as listed by the source)": "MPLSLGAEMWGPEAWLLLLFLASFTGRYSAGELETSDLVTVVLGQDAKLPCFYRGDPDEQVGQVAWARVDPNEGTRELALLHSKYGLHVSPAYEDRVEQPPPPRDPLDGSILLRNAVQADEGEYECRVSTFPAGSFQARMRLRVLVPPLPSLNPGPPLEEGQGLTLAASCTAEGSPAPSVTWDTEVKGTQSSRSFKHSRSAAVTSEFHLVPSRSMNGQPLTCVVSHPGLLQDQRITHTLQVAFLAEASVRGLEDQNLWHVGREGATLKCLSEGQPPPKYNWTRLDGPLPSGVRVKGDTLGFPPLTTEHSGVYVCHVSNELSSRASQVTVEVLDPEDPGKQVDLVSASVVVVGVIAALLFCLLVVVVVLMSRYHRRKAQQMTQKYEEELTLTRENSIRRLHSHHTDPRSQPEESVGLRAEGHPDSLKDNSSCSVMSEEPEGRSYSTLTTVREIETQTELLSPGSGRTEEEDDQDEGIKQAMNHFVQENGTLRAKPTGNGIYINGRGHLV", "experiment": "Flow cytometry species cross-reactivity on CHO cells", "format": "binding", "protocol": "Anti-Nectin-4 antibodies were tested by flow cytometry for binding to different CHO cell lines made to express respectively the mouse, cynomolgus and rat Nectin-4 protein (including an N-terminal V5 tag not shown in the sequences below)."}, "[6]": {"molecular_target": "T3, wild-type human Nectin-4 protein (huNectin4-his-BirA) (Homo sapiens, UniProt Q96NY8)", "T3 sequence (Q96NY8 with tags, fused parts or gaps)": "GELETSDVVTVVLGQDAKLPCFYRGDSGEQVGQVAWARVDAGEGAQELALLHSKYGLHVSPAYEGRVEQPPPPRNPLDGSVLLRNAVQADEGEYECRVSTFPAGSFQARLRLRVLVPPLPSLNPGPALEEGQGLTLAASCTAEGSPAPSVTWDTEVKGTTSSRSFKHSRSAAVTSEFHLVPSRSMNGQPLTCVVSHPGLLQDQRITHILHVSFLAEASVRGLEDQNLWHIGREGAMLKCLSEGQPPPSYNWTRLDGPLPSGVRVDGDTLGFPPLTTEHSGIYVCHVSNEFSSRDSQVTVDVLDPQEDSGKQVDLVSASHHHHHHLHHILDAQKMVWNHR", "experiment": "Affinity determination by SPR (Biacore T200)", "format": "binding", "details": "25° C.", "protocol": "Antibodies were tested for binding affinity to the wild-type human Nectin-4 protein by SPR (Surface Plasmon Resonance) methods. Measurements were performed on a Biacore T200 apparatus (Biacore GE Healthcare) at 25° C. Sensorgrams were analyzed with Biacore T100 Evaluation software. A CMR Sensor Chip with immobilized Protein A at about 600 RU was used. Anti-Nectin-4 antibodies were captured onto the Protein-A chip (antibodies diluted to 1 μg/ml in HBS-EP+1× buffer and injected over 120s at 40 μL/min). Recombinant human monomeric huNectin4-his-BirA protein was injected at different concentrations in a range from 100 nM to 1.56 nM over captured antibodies (HuNectin4-His-BirA diluted in HBS-EP+1× in ½ dilutions, injected over 120s at 40 μl/min) and allowed to dissociate for 600s. The chip was regenerated with NaOh 10 mM 2× for 30s at 40 μl/min. The sensorgram sets were fitted using the 1:1 kinetic binding model or two state reaction model, as a function of the profile of the curves."}},
  "note": "pKd: −log10 of the molar value.",
  "data": [
    {"compound": "PADCEV", "values": [
      {"measurement": "killing of SUM185 cells (cell viability)", "setting": "SUM185 cells", "value": "able to kill the SUM185 more efficiently than ENHERTU"},
      {"measurement": "influence of Pgp on anti-tumor activity", "setting": "[1]", "value": "negatively affected by Pgp"},
      {"measurement": "CR (complete response rate)", "setting": "[2]", "value": 12, "unit": "%"},
      {"measurement": "ORR (objective response rate)", "setting": "[2]", "value": 44, "unit": "%"},
      {"measurement": "discontinuation due to clinical symptoms", "setting": "[2]", "value": 5, "unit": "%"},
      {"measurement": "discontinuation due to progressive disease as assessed by RECIST", "setting": "[2]", "value": 48, "unit": "%"},
      {"measurement": "patients that discontinued experienced adverse events, notably neuropathy", "setting": "[2]", "value": 18, "unit": "%"}
    ]},
    {"compound": "CC[C@@]1(O)C(=O)OCc2c1cc1n(c2=O)Cc2cc3c([N+](=O)[O-])cccc3nc2-1", "note": "[RFS2000]", "values": [
      {"measurement": "activity in patients", "setting": "[3]", "value": "did not exert significant activity"}
    ]},
    {"compound": "CC[C@@]1(O)C(=O)OCc2c1cc1n(c2=O)Cc2c-1nc1cc(F)c(C)c3c1c2[C@@H](N)CC3", "note": "[exatecan]", "values": [
      {"measurement": "efficacy in addition to gemcitabine versus gemcitabine alone", "setting": "[4]", "value": "not superior in efficacy to gemcitabine alone"}
    ]},
    {"compound": "Enfortumab [reference compound]", "values": [
      {"measurement": "binding to the C1C2 construct", "setting": "[5]", "value": "lost all binding to the C1C2 construct"},
      {"measurement": "binding to whole (wild-type) human Nectin-4 protein", "setting": "wild-type human Nectin-4", "value": "bound to the whole Nectin-4 protein"},
      {"measurement": "control of tumor growth", "setting": "SUM190 cells", "value": "no longer showed the ability to control tumor growth"},
      {"measurement": "binding to rat Nectin-4 expressing CHO cells", "setting": "rat Nectin-4", "value": "bind to rat Nectin-4"},
      {"measurement": "pKd", "setting": "[6]", "value": 7.86},
      {"measurement": "ka", "setting": "[6]", "value": 340000, "unit": "M⁻¹ s⁻¹"},
      {"measurement": "kd", "setting": "[6]", "value": 0.0047, "unit": "s⁻¹"}
    ]}
  ]
}
